Test results: US20030187261A1, “Purine derivatives, process for their preparation and use thereof” (priority 2000, published 2003)
Each block holds one compound with its values, some of them ahead of it.

Columns and labels:
HIV-1 [1] = settings: for HIV-1 MT-4 IC50: MT-4 cells, 5 days
Protocol: (§6) The infected cell cultures were incubated at 37° C. for 5 days in a humidified CO2 incubator. The cytopathicity of the virus was examined by determination of MT-4 cell viability by trypan blue dye staining.

HIV-2 [2] = experiment: anti-HIV-2 activity in CEM cells; format: cell-based
Protocol: as §6

HIV-1 [3] = settings: CEM cells
Protocol: as §6

MSV = experiment: MSV-induced transformation in murine embryo fibroblast C3H/3T3 cells; format: cell-based; settings: day 6 post infection
Protocol: The cells were seeded in 1-ml-wells of 48-well plates and exposed to 80 PFU (plaque forming units) for 60-90 min. The virus was subsequently removed and culture medium containing appropriate concentrations of the tested compounds was added (1 ml per well). At day 6-post infection, MSV-induced transformation of the cell culture was examined microscopically. The results are summarised in Table 9 in comparison with the data on the prototype compounds.

HIV-2 [4] = experiment: HIV-2-induced cytopathicity in MT-4 cells; format: cell-based; settings: for HIV-2 MT-4 IC50: MT-4 cells, 5 days
Protocol: as §6

the cells = settings: at 100 μg/ml
retroviruses = experiment: anti-retroviral activity in vitro; format: cell-based
Protocol: as §6

DNA synthesis = DNA synthesis in Xenopus egg extracts ([α-32P]dATP incorporation); format: biochemical; settings: [α-32P]dATP incorporation after 3 h; read-out: Inhibition of DNA synthesis IC50
Protocol: (§1) Metaphase-arrested Xenopus egg extracts were prepared as described previously by Blow “J. Cell Biol.” 1993, 122:993 and stored in liquid nitrogen. Demembranated Xenopus sperm nuclei were prepared as described by Blow & Laskey “Cell” 1986;47:577.
(§2) At concentrations of cdk inhibitors (see Table 6) ranging from 0.1-2 μM, chromosomes remained highly condensed and no nuclear envelope was visible. At 4-6 μM and higher concentrations, interphase nuclei appeared with partially decondensed chromatin and an intact nuclear envelope. […] For the inhibition effect to become detectable, the first 15-min incubation of the interphase extract is probably sufficient.

[5] = test system: T-lymphoblastic leukemia cell line CEM; experiment: MTT cytotoxicity assay, CEM; format: cell-based, human; settings: 72 hours (TCS50 in the method)
Description: (§3) One of the parameters used as the basis for colorimetric assays is the metabolic activity of viable cells. For example, a microtiter assay, which uses the tetrazolium salt MTT, is now widely used to quantitate cell proliferation and cytotoxicity. For instance, this assay is used in drug screening programs and in chemosensitivity testing. Because only metabolically active cells cleave tetrazolium salts, these assays detect viable cells exclusively. In the case of MTT assay, yellow soluble tetrazolium salt is reduced to coloured water-insoluble formazan salt. After it is solubilized, the formazan formed can easily and rapidly be quantified in a conventional ELISA plate reader at 570 nm (maximum absorbance). The quantity of reduced formazan corresponds to number of vital cells in the culture. Human T-lymphoblastic leukemia cell line CEM; promyelocytic HL-60 and monocytic U937 leukemias; breast carcinoma cell lines MCF-7, BT549, MDA-MB-231; glioblastoma U87MG cells; cervical carcinoma cells HELA; sarcoma cells U20S and Saos2; hepatocellular carcinoma HepG2; mouse immortalized bone marrow macrophages B2.4 and B10A.4; P388D1 and L1210 leukemia; B16 and B16F10 melanomas were used for routine screening of the compounds according to the invention. The cells were maintained in Nunc/Corning 80 cm^2 plastic tissue culture flasks and cultured in cell culture medium (DMEM with 5 g/l glucose, 2 mM glutamine, 100 U/ml penicillin, 100 μg/ml streptomycin, 10% fetal calf serum and sodium bicarbonate).
(§4) The cell suspensions that were prepared and diluted according to the particular cell type and the, expected target cell density (2500-30000 cells per well based on cell growth characteristics) were added by pipette (80 μl) into 96-well microtiter plates. Inoculates were allowed a pre-incubation period of 24 hours at 37° C. and 5% CO2 for stabilisation. Four-fold dilutions of the intended test concentration were added at time zero in 20 μl aliquots to the microtiter plate wells. Usually, test compound was evaluated at six 4-fold dilutions. In routine testing, the highest well concentration was 266.7 μM, but it can be the matter of change dependent on the agent. All drug concentrations were examined in duplicates. Incubations of cells with the test compounds lasted for 72 hours at 37° C., in 5% CO2 atmosphere and 100% humidity. At the end of incubation period, the cells were assayed by using the MTT. Ten microliters of the MTT stock solution were pipetted into each well and incubated further for 1-4 hours. After this incubation period, formazan was solubilized by addition of 100 μl/well of 10% SDS in water (pH=5.5) followed by further incubation at 37° C. overnight. The optical density (OD) was measured at 540 nm with the Labsystem iEMS Reader MF (UK). The tumour cell survival (TCS) was calculated using the following equation: TCS=(ODdrug exposed well/mean ODcontrol wells)×100%. The TCS50 value, the drug concentration lethal to 50% of the tumour cells, was calculated from the obtained dose response curves.
(§5) The cytoxicity of novel compounds was tested on panel of cell lines of different histogenetic and species origin (Table 7). Equal activities were found in all tumour cell lines tested. […] Importantly, this observation distinguishes the purine derivatives of the invention from flavopiridol and related compounds, as their biological activity is dependent on p53 status.

MPF activity = experiment: M-phase promoting factor inhibition in metaphase-arrested Xenopus egg extracts; format: biochemical; settings: 1.5 h after addition
Protocol: as §1, §2

normal human lymphocytes = experiment: concanavalin A induced lymphocyte proliferation, [3H]-TdR incorporation; format: cell-based; settings: 72 hours, read-out: ED50 (the source's name)
Protocol: Human heparinized peripheral blood was obtained from healthy volunteers by cubital vein punction. The blood was diluted in PBS (1:3) and mononuclear cells were separated by centrifugation in Ficoll-Hypaque density gradient (Pharmacia, 1.077 g/ml) at 2200 rpm for 30 minutes. Following centrifugation, lymphocytes were washed in PBS and resuspended in cell culture medium (RMPI 1640, 2 mM glutamine, 100 U/ml penicillin, 100 μg/ml streptomycin, 10% fetal calf serum and sodium bicarbonate).
The cells were diluted at target density of 1100000 cells/ml and were added by pipette (180 μl) into 96/well microtiter plates. Four-fold dilutions of the intended test concentration were added at time zero in 20 μl aliquots to the microtiter plate wells. Usually, test compound was evaluated at six 4-fold dilutions. In routine testing, the highest well concentration was 266.7 μM. All drug concentrations were examined in duplicates. All wells with exception of unstimulated controls were activated with 50 μl of concanavalin A (25 μg/ml). Incubations of cells with test compounds lasted for 72 hours at 37° C., in 5% CO2 atmosphere and 100% humidity. At the end of incubation period, the cells were assayed by using the [^3H]-TdR:
Cell cultures were incubated with […] (20 μl of stock solution 500 μCi/ml) per well for 6 hours at 37° C. and 5% CO2. The automated cell harvester was used to lyse cells in water and adsorb the DNA onto glass-fiber filters in the format of microtiter plate. The DNA incorporated [^3H]-TdR was retained on the filter while unincorporated material passes through. The filters were dried at room temperature overnight, sealed into a sample bag with 10-12 ml of scintillant. The amount of [^3H]-TdR present in each filter (in cpm) was determined by scintillation counting in a Betaplate liquid scintillation counter. The effective dose of immunosuppressant (ED) was calculated using the following equation: ED=(cpmdrug exposed well/mean cpmcontrol wells)×100%. The EDs50 value, the drug concentration inhibiting proliferation of 50% of lymphocytes, was calculated from the obtained dose response curves.
To evaluate immunosuppressive activity of substituted adenines, their ability to inhibit polyclonal mitogen induced proliferation of normal human lymphocytes was analyzed (Table 8). […] Effective immunosuppressive dose of new derivatives under in vitro conditions was close to 1-20 μM.

IκB-α = IκB-α kinase-inhibitory activity; format: biochemical; settings: Table 3
Description: Modification of 2,6,9-trisubstituted purines by a catechol-like substituent at R6 leads to an increase in cdk inhibitory activity of the tested compounds.

B16 melanoma = experiment: MTT cytotoxicity assay, B16; format: cell-based, mouse; settings: 72 hours (TCS50 in the method)
Description: as §3, §4, §5

CDC2 = molecular target: T1, CDC2 (Homo sapiens, UniProt P06493); experiment: p34cdc2 (CDC2) kinase inhibition assay, histone H1 substrate; format: biochemical; settings: Table 3
T1 construct: made in house; host or cells: Sf9 insect cells, baculovirus co-infection
T1 sequence (P06493 whole entry, species assumed): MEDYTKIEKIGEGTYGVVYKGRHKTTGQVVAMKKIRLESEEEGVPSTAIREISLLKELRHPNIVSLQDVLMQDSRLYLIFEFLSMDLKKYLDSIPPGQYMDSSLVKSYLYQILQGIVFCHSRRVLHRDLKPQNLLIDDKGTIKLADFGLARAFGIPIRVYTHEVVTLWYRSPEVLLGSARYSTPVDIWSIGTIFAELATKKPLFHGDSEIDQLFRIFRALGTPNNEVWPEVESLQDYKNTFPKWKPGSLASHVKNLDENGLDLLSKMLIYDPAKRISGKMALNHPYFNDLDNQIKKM
T1 sequence (P14635 whole entry partner, species assumed): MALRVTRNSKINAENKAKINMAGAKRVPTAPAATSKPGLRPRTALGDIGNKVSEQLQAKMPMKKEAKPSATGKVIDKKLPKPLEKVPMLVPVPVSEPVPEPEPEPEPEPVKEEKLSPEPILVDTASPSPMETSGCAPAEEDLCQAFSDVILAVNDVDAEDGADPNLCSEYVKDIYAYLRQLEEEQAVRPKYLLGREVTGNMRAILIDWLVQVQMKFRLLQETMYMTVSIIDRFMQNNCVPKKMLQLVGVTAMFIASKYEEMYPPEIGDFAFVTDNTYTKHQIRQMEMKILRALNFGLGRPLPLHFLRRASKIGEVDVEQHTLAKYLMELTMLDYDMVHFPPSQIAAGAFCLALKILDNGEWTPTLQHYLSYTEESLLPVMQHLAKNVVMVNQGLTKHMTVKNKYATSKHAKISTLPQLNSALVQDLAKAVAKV

Structure (SMILES): CC(Cn1cnc2c(NCc3ccc(O)c(O)c3)nc(N)nc21)OCP(=O)(O)O (centres unmarked)
HIV-1 MT-4 IC50 (HIV-1 [1]): 3.2 µg/mL | HIV-2 CEM IC50 (HIV-2 [2]): 8.3 µg/mL

Structure (SMILES): CC(Cn1cnc2c(NC(CO)c3ccccc3)nc(N)nc21)OCP(=O)(O)O (centres unmarked)
HIV-1 MT-4 IC50 (HIV-1 [1]): 10.1 µg/mL | HIV-1 CEM IC50 (HIV-1 [3]): >20 µg/mL | HIV-2 CEM IC50 (HIV-2 [2]): >20 µg/mL

Structure (SMILES): Nc1nc(NCc2ccc(O)c(O)c2)c2ncn(CCOCP(=O)(O)O)c2n1
HIV-1 CEM IC50 (HIV-1 [3]): >20 µg/mL | HIV-2 CEM IC50 (HIV-2 [2]): >20 µg/mL

Structure (SMILES): CN(CCc1ccc(O)c(O)c1)c1nc(N)nc2c1ncn2CCOCP(=O)(O)O
MSV IC50 (MSV): 0.9 µg/mL | HIV-2 MT-4 IC50 (HIV-2 [4]): 32 µg/mL | HIV-1 CEM IC50 (HIV-1 [3]): >20 µg/mL | HIV-2 CEM IC50 (HIV-2 [2]): >20 µg/mL

Structure (SMILES): CC(Cn1cnc2c(N(C)CCc3ccc(O)c(O)c3)nc(N)nc21)OCP(=O)(O)O (centres unmarked)
HIV-2 MT-4 IC50 (HIV-2 [4]): 3.2 µg/mL | HIV-2 CEM IC50 (HIV-2 [2]): 7.8 µg/mL

Structure (SMILES): C[C@H](Cn1cnc2c(N)nc(N)nc21)OCP(=O)(O)O [(R)-PMPD]
selectivity index (ratio cytotoxic dose/antivirally active dose) (HIV-2 [4]; HIV-2): higher than 2000 | toxicity to the cells (the cells): not toxic | selectivity index (ratio cytotoxic dose/antivirally active dose) (HIV-1 [1]; HIV-1): higher than 2000 | EC50 retrovirus replication (retroviruses): 0.01 to 0.1 µg/mL

IC50 (DNA synthesis): 1300 nM | IC50 (MPF activity): 1120 nM | IC50 (IκB-α): 3200 nM | IC50 (CDC2): 950 nM
Structure (SMILES): CC[C@H](CO)Nc1nc(N(C)CCc2ccc(O)c(O)c2)c2ncn(C(C)C)c2n1
IC50 [5]: 6000 nM | EC50 (normal human lymphocytes): 1500 nM | IC50 (B16 melanoma): 6000 nM

Structure (SMILES): Nc1nc(NC(CO)c2ccccc2)c2ncn(CCOCP(=O)(O)O)c2n1 (racemic)
HIV-1 CEM IC50 (HIV-1 [3]): >20 µg/mL | HIV-2 CEM IC50 (HIV-2 [2]): >20 µg/mL
